Entries after “also recorded” stand apart in the source; their conditions may differ.
Legend:
E14 ES cells = experiment: Cell Proliferation Assay; assay type: cell-based; conditions: Mus musculus
Experimental: Cell Proliferation Assay. E14 ES cells were seeded and incubated for 2 days in the presence of different concentrations of Gö6983. Cell proliferation was measured with […] 96 AQUEOUS One Solution Reagent (Promega, Madison, Wis.) following the manufacturer's protocol.

RelA and LGL1/2 = experiment: Phosphorylation of PKC ζ target proteins in mESCs; assay type: cell-based, mouse
Experimental: (§1) Western Blot Analysis. Whole cell lysates were prepared in SDS-gel loading buffer and resolved by 10% PAGE. The antibodies used for this study included β-actin Clone AC-15 from Sigma; p-STAT3 (Tyr705), p-p44/42 MAPK (tyr202/tyr204), p44/42 MAPK, GSK3β, Phospho Akt (Ser473), Akt, p-NFκβ p65 (Ser536), c-Myc, p-c-Myc (Thr58/Ser62), p-p90RSK (Thr359/Ser363), RSK1, Suz12 (D39F6), and Ezh2 (AC22) from Cell Signaling Technology; STAT3 (C-20), Oct-4 (C-10), Nanog (M-149), PKC α (C-20), PKC βI (C-16), PKC βII (C-18), PKC γ (C-19), PKC δ (C-20), PKC ζ (c-20), p-PKC ζ (Thr 410)-R, p-NFκβ p65 (ser311), and RelA (p65) from Santa Cruz Biotechnology; p-LGL1/LGL2 (S650/S654), SSEA4and H3K4Me3 from Abcam; LGL2 (M06), clone 4G2 from Abnova; β-Catenin from BD Transduction Laboratories, and H3K27Me3 and H3K9Me3 from Millipore.

129/Sv blastocysts = experiment: De novo derivation of new ES cells from blastocysts; assay type: cell-based, mouse
Experimental: De Novo Derivation of New ES Cells With Gö6983. Blastocysts from 6-week-old female 12952/SvPasCrl (129/Sv) strain mice (Charles River Laboratory, Wilmington, Mass.) were isolated at 3.5 day post-coitum. Isolated blasotocysts were plated on gelatin-coated plastic in medium containing Gö6983 and FBS and without LIF. To obtain ES cell colonies, blastocyst outgrowths were disaggregated with trypsin and replated on gelatin-coated wells with Gö6983 and FBS. ES cell colonies were expanded by replating with Gö6983 at clonal or higher density. For in vitro analysis, cells were differentiated following the same protocol described herein. After six passages with Gö6983-condition, chromosome numbers were checked by karyotyping, and injected in C57BL/6 blastocysts for chimera generation.

STAT3 = STAT3 phosphorylation, Western blot; assay type: cell-based, mouse; conditions: E14 cells
Experimental: (§2) E14 ES Cell Cultures. Cells were grown in ES-IMDM media (Lonza, Walkersville, Md.) in a feeder-free condition. ES-IMDM was supplemented with 15% serum, 10^5 U/100 ml of LIF (ESGRO, Millipore, Calif.) and 0.0124% monothioglycerol (MTG; Sigma Aldrich). Cells were grown for 3-5 days with change of medium every day. For inducing differentiation in monolayer culture and to determine the effect of Gö6983 in preventing differentiation, E14 cells were cultured on gelatin-coated plastics for 8 days without LIF. Details of experiments performed at clonal-density are described herein. To maintain E14 cells with Gö6983, serum supplemented ES-IMDM was used in the presence of 5 μM Gö6983 and was passed after every 3-5 days. For all assays involving elucidation of different signaling mechanism responsible for maintenance of pluripotency, cells from a ˜70% confluent ES culture plate were washed two times with 1× phosphate-buffered saline (PBS), trypsinized and plated on a 6-well tissue culture plate and treated with or without LIF or Gö6983 or different inhibitors for ˜10 hours followed by preparation of protein lysates and RNA. The PKCζ knocked-down E14 cells that were generated in this study were maintained in serum supplemented ES-IMDM on gelatin-coated plates in the absence of Gö6983 or LIF or any other inhibitor and passed after 3-5 days. […]

Stat3−/− ES cells = Stat3−/− ES cells in serum-free N2B27 medium; assay type: cell-based, mouse
Experimental: Stat3^−/− ES Cells. Passage 12 Stat3^−/− ES cells were maintained on N2B27 medium with 1 μM PD0325901 and 3 μM CHIR99021 and passaged every 3-4 days. For studies involving Gö6983, around 1-2×10^4 cells were plated on 6-well plates having N2B27 medium with or without 5 μM Gö6983 and analyzed for the expression of pluripotency markers.

GSK-3α or GSK-3β = experiment: GSK3 phosphorylation in mESCs; assay type: cell-based, mouse
Experimental: as §2

c-Myc = experiment: GSK-3β-mediated phosphorylation of c-Myc at T58; assay type: cell-based, mouse; conditions: Gö6983 alone
p90Rsk1 (Rsk1) = experiment: Phosphorylation of p90Rsk1; assay type: cell-based, mouse; conditions: Gö6983 alone
Experimental: as §1

[1] = system: human ES cells (H9 cells); experiment: Human ES cells in feeder-free culture, MEF-conditioned medium; assay type: cell-based
DCIS.com cells = experiment: Mamosphere formation of breast cancer cells; assay type: cell-based
Experimental: In addition to ES and iPS cells, it was determined whether blockade of PKC signaling facilitated the propagation of cancer stem cells. To that end, mamosphere formation of a breast cancer cell type known as DCIS.com was analyzed. Mamospheres are specialized structures formed by breast cancer cell types and are indicative of presence and propagation of breast cancer stem cells. […] Therefore, blockade of PKC signaling can be used to efficiently propagate and expand cancer stem cells.

Eed−/− ES cells = Eed−/− ES cells on collagen IV without LIF
Text: Eed^−/− ES Cells. Eed^−/− ES cells, passage 4, were maintained in same medium as mentioned for Ezh2^−/− cells but supplemented with extra LIF (2000 U/ml) to suppress spontaneous differentiation.

COc1ccc2c(c1)c(C1=C(c3c[nH]c4ccccc34)C(=O)NC1=O)cn2CCCN(C)C [Gö6983, 3-[1-[3-(dimethylamino)propyl]5-methoxy-1H-indol-3-yl]-4-(1H-indol-3-yl)-1H-pyrrole-2,5-dione]
inhibition at 2.5 µM (E14 ES cells): ~30% | phosphorylation of RelA and LGL1/2 (RelA and LGL1/2): impaired | propagation of Gö6983-derived ES cell lines at clonal density (129/Sv blastocysts; cultured with Gö6983): successfully propagated in an undifferentiated state | multilineage differentiation potential of established ES cell lines (129/Sv blastocysts; embryoid bodies, differentiated on collagen IV): readily formed embryoid bodies and expressed lineage specific markers | derivation of ES cell colonies from blastocyst outgrowths (129/Sv blastocysts; serum and Gö6983, without LIF and feeder cells, gelatin-coated plates): multiple ES cell colonies were obtained from 10 blastocysts | STAT3 phosphorylation (STAT3): did not induce | differentiation of Stat3−/− ES cells (Stat3−/− ES cells): efficiently prevented differentiation | phosphorylation of GSK-3α or GSK-3β (GSK-3α or GSK-3β): did not significantly change | GSK-3β-mediated phosphorylation of c-Myc at T58 residue (c-Myc): did not inhibit | phosphorylation of Rsk1 (p90Rsk1 (Rsk1)): not inhibited | undifferentiated morphology and SSEA4 expression of human ES cells ([1]; MEF-conditioned medium, multiple passages): maintained their undifferentiated morphology and expression of pluripotency marker | SSEA4 expression in H9 colonies ([1]; versus TeSR1 medium or conditioned medium with bFGF, FIG. 5): sustained high levels of SSEA4 expression; also recorded: comparable | Oct4 protein expression in human ES cells ([1]; versus conditioned medium alone): High levels of Oct4 protein expression | mamosphere formation (DCIS.com cells): efficiently generated mamospheres | colony morphology and pluripotency markers of Eed−/− cells (Eed−/− ES cells; collagen IV without LIF): largely maintained undifferentiated colony morphology and expression of pluripotency markers | expression of developmental regulator genes in Eed−/− cells (Eed−/− ES cells; in the presence of Gö6983): significantly induced
